Measured values: US20140314790A1, “CASPASE 9 INHIBITION AND BRI2 PEPTIDES FOR TREATING DEMENTIA” (ALBERT EINSTEIN COLLEGE OF MEDICINE OF YESHIVA UNIVERSITY, priority 2011, published 2014)
“And” between values parts separate entries of the source, which are not always exact repeats. Identical values can stand only once. Starred links: 1 amine or outer side, 2 acyl side, 3 side chain; linkers in the order of their positions; H or OH if unused. Non-standard residues stand in square brackets, D forms with d. No end group written: not given here. *: point of attachment. E(OMe) = COC(=O)CC[C@H](N[*:1])C(=O)[*:2]; D(OMe) = COC(=O)C[C@H](N[*:1])C(=O)[*:2]; code Z = not defined here; Cbz = O=C(OCc1ccccc1)*; CH2F = FC*

How the values were obtained:
[1] = system: hippocampal slices of FDDKI and WT mice (Schaeffer collateral pathway LTP); assay: Long-term potentiation (LTP) in hippocampal slices perfused 60 min with test substance; conditions: for reversal of LTP deficit in FDDKI mice: 60 min perfusion; for reversal of LTP impairment in FDDKI mice: sixty minute perfusion
Text: All data are shown as mean±s.e.m. Statistical tests included two-way ANOVA for repeated measures and t-test when appropriate.

[2] = system: FDDKI mice and WT littermates; assay: Novel object recognition (NOR) test after injection in the lateral ventricle; type: in vivo
β- and α-cleavage of APP = assay: APP processing in HEK293-APP cells, sAPPβ and sAPPα in media by Western blot; conditions: for inhibition of APP processing: 25 μM (FIG. 8A) or 5 μM (FIG. 8B); for inhibition of β-cleavage of APP relative to N3: 5 μM, 8 hrs (FIG. 8B); for α-processing of APP (sAPPα in media) / β-cleavage of APP (sAPPβ in media): 25 μM, 8 hrs (FIG. 8A)
Experimental: WB of cell lysates detected APP and α-Tubulin. […] The data are shown as % of inhibition of β-secretase activity in samples without inhibitors.
BRI2-derived peptides and APP processing. APP-transfected HEK293 cells were incubated with the indicated peptides for 8 hrs.

APP = molecular target: T1, APP (Homo sapiens, UniProt P05067); assay: α-Flag precipitation of Flagged peptides from HeLa/APP cells; type: binding; conditions: for binding to APP (co-precipitation): HeLa/APP cells, 40 μM Flagged peptide, 2 hours
T1 construct: expressed in transfected cells; host or cells: HeLa cells transfected with APP (HeLa-APP)
Experimental: (§1) FIG. 8A-8I. 4A BRI2-derived peptide binds APP and inhibits β-cleavage of APP. (A-B) HEK293-APP cells were incubated with the indicated peptides (N1, N2, […] are SEQ ID NOs: 2, 3, 4, 5, 6, 7, 8, and 9, respectively). β- and α-cleavage of APP were quantified by measuring sAPPβ and sAPPα in media by WB. WB of cell lysates detected APP and α-Tubulin. (C-E) WB analysis of lysates (L) or α-Flag IP (IP) from HeLa/APP cells incubated for 2 hours with Flagged peptides. […] (G) Biotinylated cells were cultured as in (C). The reduced and not reduced samples are indicated (+red and −red, respectively). Lysates (L), α-Flag IP eluted with Flag-peptide (E), eluted sample precipitated with streptavidin-beads [both the fraction unbound (U) and bound (B) to streptavidin-beads], were probed for APP in WB. (H) Purified β-secretase was incubated with fluorescent β-secretase substrate for 30 minutes, resulting in β-cleavage that could be detected by fluorescence increase. […] The data are shown as % of inhibition of β-secretase activity in samples without inhibitors. (I) Model of N3-2A/MoBA activity.
Precipitation with FLAG-peptides. To prepare brain cells, mouse brains were washed in PBS and minced in dissociation buffer. After sedimentation and filtration, dissociated cells were cultured in Neurobasal media. Cells incubated with Flagged-peptides were lysed and precipitated with Flag-M2-agarose-beads as described (Matsuda et al, 2005). Bound proteins were eluted with 100 μg/ml of FLAG peptide.
A BRI2-derived peptide binds APP and inhibits β-cleavage of APP. It was tested whether peptides spanning this domain duplicated BRI2's function. […] Next it was examined if N3-2A (SEQ ID NO:5) binds APP. HeLa-APP cells were cultured with or without N3-2A fused to a C-terminal Flag epitope (N3-2A-F). After 2 hrs of incubation, cell lysates were precipitated with α-Flag-agarose-beads and co-precipitated molecules were eluted with a Flag-peptide.

endogenous APP = molecular target: T2, endogenous APP (Mus musculus, UniProt P12023); assay: α-Flag precipitation of Flagged peptide from cultured brain cells; type: binding
T2 construct: endogenous in cells; host or cells: dissociated mouse brain cells cultured in Neurobasal media
Experimental: as §1
Precipitation with FLAG-peptides. To prepare brain cells, mouse brains were washed in PBS and minced in dissociation buffer. After sedimentation and filtration, dissociated cells were cultured in Neurobasal media. […]

purified β-secretase = molecular target: T3, purified β-secretase (Homo sapiens, UniProt P56817); assay: β-secretase FRET activity assay with purified enzyme; type: biochemical; conditions: fluorescent β-secretase substrate, 30 minutes
T3 construct: purchased Invitrogen
Experimental: WB of cell lysates detected APP and α-Tubulin. (C-E) WB analysis of lysates (L) or α-Flag IP (IP) from HeLa/APP cells incubated for 2 hours with Flagged peptides. […] (G) Biotinylated cells were cultured as in (C). The reduced and not reduced samples are indicated (+red and −red, respectively). […] The data are shown as % of inhibition of β-secretase activity in samples without inhibitors.

[3] = system: primary hippocampal neuron cultures; conditions: cited from earlier work
rat models of stroke = conditions: cited from earlier work
γ-secretase = conditions: two values given, not explained; cited from earlier work
[4] = FDDKI mice, 1 μl of PBS/100 μM in lateral ventricle
[5] = FDDKI mice, 1 μl of PBS/500 μM in lateral ventricle, 1 hr before training and testing

T1 sequence (P05067 18-770): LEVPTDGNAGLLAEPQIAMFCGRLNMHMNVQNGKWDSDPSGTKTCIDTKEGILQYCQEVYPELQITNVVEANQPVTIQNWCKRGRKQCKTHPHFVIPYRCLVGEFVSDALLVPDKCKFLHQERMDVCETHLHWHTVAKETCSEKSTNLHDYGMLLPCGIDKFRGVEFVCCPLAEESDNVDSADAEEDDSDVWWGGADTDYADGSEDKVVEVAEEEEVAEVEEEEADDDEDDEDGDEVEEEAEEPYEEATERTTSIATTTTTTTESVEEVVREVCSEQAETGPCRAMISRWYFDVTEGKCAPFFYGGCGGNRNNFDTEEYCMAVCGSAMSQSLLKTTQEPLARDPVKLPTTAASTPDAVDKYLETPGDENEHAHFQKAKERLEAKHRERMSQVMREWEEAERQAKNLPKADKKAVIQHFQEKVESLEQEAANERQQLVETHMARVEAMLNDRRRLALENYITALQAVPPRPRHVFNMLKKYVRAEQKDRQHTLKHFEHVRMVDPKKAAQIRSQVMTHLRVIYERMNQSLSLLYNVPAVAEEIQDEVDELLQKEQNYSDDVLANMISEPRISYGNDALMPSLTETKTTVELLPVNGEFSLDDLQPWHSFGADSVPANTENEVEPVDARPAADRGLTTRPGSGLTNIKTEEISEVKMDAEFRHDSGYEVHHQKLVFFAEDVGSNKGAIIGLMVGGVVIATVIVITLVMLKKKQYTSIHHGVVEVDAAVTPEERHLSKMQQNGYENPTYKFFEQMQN
T2 sequence (P12023 18-770): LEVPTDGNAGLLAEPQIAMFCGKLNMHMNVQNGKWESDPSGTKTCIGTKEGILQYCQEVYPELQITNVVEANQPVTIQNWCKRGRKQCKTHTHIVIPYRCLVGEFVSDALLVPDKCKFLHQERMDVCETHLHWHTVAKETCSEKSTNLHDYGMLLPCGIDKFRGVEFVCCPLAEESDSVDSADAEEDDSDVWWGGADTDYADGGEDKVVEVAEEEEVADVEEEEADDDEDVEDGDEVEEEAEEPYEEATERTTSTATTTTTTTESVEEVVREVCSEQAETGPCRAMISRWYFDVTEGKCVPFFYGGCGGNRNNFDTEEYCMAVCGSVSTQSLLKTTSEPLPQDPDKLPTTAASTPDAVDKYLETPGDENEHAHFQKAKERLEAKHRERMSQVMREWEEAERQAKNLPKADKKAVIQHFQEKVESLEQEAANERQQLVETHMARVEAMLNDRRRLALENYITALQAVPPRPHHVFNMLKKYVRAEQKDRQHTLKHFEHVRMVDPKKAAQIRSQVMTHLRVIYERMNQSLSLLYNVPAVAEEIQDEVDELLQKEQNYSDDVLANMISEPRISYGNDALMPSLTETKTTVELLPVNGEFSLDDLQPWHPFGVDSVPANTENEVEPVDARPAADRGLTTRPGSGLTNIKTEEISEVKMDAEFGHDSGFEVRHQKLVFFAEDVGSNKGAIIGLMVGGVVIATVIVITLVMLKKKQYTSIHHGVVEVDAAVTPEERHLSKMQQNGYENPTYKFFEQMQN
T3 sequence (P56817 46-501): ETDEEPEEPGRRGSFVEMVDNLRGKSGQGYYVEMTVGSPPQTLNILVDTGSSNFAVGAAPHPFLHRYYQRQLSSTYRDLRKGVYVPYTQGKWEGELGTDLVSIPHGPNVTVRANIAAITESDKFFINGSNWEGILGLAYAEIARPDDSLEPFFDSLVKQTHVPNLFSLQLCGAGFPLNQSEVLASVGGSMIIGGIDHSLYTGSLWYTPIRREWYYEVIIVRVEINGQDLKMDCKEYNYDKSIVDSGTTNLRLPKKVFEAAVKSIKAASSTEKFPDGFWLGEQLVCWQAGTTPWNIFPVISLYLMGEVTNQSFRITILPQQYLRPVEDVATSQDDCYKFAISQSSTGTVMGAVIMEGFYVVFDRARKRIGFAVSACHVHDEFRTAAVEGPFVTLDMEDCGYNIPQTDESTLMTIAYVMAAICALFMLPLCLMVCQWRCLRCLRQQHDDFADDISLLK

## β-secretase-inhibitor IV
[1]; FDDKI slices, 50 nM
  rescue of LTP impairment in FDDKI mice: rescues LTP impairment in FDDKI mice
[1]; WT slices, β-secretase inhibitor IV 50 nM
  effect on LTP of WT mice: do not alter LTP of WT mice
[2]; [4]
  rescue of memory deficit of FDDKI mice (NOR): transiently rescue this memory deficit

## ILNEPSADAP (FRAGMENT DIRECTED TO HUMAN PROTEIN) [N6]
[1]; FDDKI slices, 1 μM
  reversal of LTP deficit in FDDKI mice: does not rescue the LTP deficit
β- and α-cleavage of APP
  inhibition of APP processing: does not inhibit APP processing

## N3-2A-F: N3-2A fused to a C-terminal Flag epitope (DAVYYCGLKY-{Flag epitope})
APP
  binding to APP (co-precipitation): binds mature APP
Endogenous APP
  binding to endogenous APP: binds endogenous APP

## Cbz-Val-Ala-Asp(OMe)-CH2F [Z-VAD-FMK]
[1]; FDDKI slices, 10 μM
  reversal of LTP impairment in FDDKI mice: reverse LTP impairment in FDDKI mice

## DAVYYCGLKY (FRAGMENT DIRECTED TO A HOMO SAPIENS PROTEIN) [N3-2A]
APP; HeLa/APP cells (FIG. 8C, D)
  binding to β-CTF: does not bind β-CTF
APP; untagged peptide added to media containing 40 μM N3-2A-F
  competition for binding to APP: could compete for binding to APP
[1]; FDDKI slices, 10 nM
  reversal of LTP deficit in FDDKI mice: reversed the LTP deficit of FDDKI samples
[1]; FDDKI slices, 1 μM
  reversal of LTP deficit in FDDKI mice: reversed the LTP deficit of FDDKI samples
[1]; WT slices, 1 μM
  effect on LTP of WT mice: does not alter LTP of WT mice
Purified β-secretase
  inhibition of β-secretase activity: did not inhibit the activity of purified β-secretase
[2]; [4]
  rescue of memory deficit of FDDKI mice (NOR): transiently rescue this memory deficit
β- and α-cleavage of APP; 5 μM (FIG. 8B)
  α-processing of APP: did not overtly inhibit α-processing of APP
β- and α-cleavage of APP
  inhibition of β-cleavage of APP relative to N3: stronger inhibitor of APP processing by β-secretase

## ADVYYCGLKY (FRAGMENT DIRECTED TO HOMO SAPIENS PROTEIN) [N3-1A]
β- and α-cleavage of APP
  inhibition of β-cleavage of APP relative to N3: stronger inhibitor of APP processing by β-secretase

## Z-D(OMe)-E(OMe)-V-D(OMe)-FMK [Z-DEVD-FMK]
[2]; [5]
  rescue of memory deficit of FDDKI mice (NOR): does not
[2]; WT mice, 1 μl of PBS/500 μM in lateral ventricle
  performance of WT animals (NOR): nor altered performance of WT animals

## Pen1-XBIR3: XIAP-BIR3 domain disulfide-linked to cell-penetrating peptide Penetratin1; specific inhibitor of active caspase-9
[3]
  caspase-9 dependent cell death: inhibits caspase-9 dependent cell death
Rat models of stroke; direct parenchymal or intranasal delivery, rat
  therapeutic effect: therapeutically effective
Rat models of stroke; in vivo model of cerebral ischemia
  caspase-9 block after delivery to the CNS: blocks caspase-9
Rat models of stroke; one dose
  functional protection against ischemia post-infarction: 3 weeks
[2]; FDDKI mice, NOR without treatments after 5 days of rest
  persistence of therapeutic effect post injection: at least 5 days
[2]; FDDKI mice, lateral ventricle, 2 μl of PBS/23 μM Pen1-XBIR3 or 2 μl of PBS/16 μM Pen1-CrmA, 1 h before training and testing
  rescue of memory deficit of FDDKI mice (NOR): rescues this memory deficit
[2]; FDDKI mice, no further treatments
  therapeutic effect in NOR test repeated 5 days later: still significant
[2]; WT mice, 2 μl of PBS/23 μM Pen1-XBIR3 or 2 μl of PBS/16 μM Pen1-CrmA
  memory in WT animals (NOR): Neither Pen1-XBIR3 nor Pen1-CrmA altered memory in WT animals

## DDVYYCGLKY (FRAGMENT DIRECTED TO A HOMO SAPIENS PROTEIN) [N3]
β- and α-cleavage of APP
  α-processing of APP (sAPPα in media): moderately decreased α-processing of APP
  β-cleavage of APP (sAPPβ in media): strongly reduced β-cleavage

## C[C@H](NC(=O)Cc1cc(F)cc(F)c1)C(=O)N[C@H]1N=C(c2ccccc2)c2ccccc2N(C)C1=O [compound-E]
[1]; FDDKI slices, 1 nM
  rescue of LTP defect in FDDKI samples: does not rescue the LTP defect in FDDKI samples
[1]; WT slices, compound-E 1 nM
  effect on LTP of WT mice: do not alter LTP of WT mice
γ-secretase
  IC50: 0.3 nM and 0.24 nM
[2]; FDDKI mice, 1 μl of PBS/300 nM compound-E
  rescue of memory deficit of FDDKI mice (NOR): does not
[2]; FDDKI mice, ten-fold higher dose, 1 μl of PBS/3 μM compound-E
  rescue of memory deficit of FDDKI mice (NOR): did not correct the memory deficit of Danish mice
[2]; WT mice, 1 μl of PBS/300 nM compound-E
  performance of WT animals (NOR): nor altered performance of WT animals
[2]; WT mice, ten-fold higher dose, 1 μl of PBS/3 μM compound-E
  memory of WT mice (NOR): showed a trend, though not statistically significant, toward memory impairment

## Z-L-E(OMe)-H-D(OMe)-FMK.TFA ({code Z}-L[E(OMe)]H[D(OMe)]-CH2F; reading uncertain; also: TFA salt, printed as Z-L-E(OMe)-H-D(OMe)-FMK.TFA) [Z-LEHD-FMK]
[1]; FDDKI slices, 2 μM
  reversal of LTP impairment in FDDKI mice: reverse LTP impairment in FDDKI mice
[1]; WT untreated vs. WT treated with Z-LEHD-FMK
  effect on LTP of WT mice: does not alter LTP of WT mice
[2]; [5]
  rescue of memory deficit of FDDKI mice (NOR): transiently rescue this memory deficit

## N3-4A-F: Flagged single amino acid N3 mutant (DDVAYCGLKY-{Flag epitope})
APP
  binding to APP (co-precipitation): did not bind APP
β- and α-cleavage of APP
  inhibition of APP processing: do not inhibit APP processing

## DDVYYCGLKYIKDD (FRAGMENT DIRECTED TO HUMAN PROTEIN) [N8]
β- and α-cleavage of APP
  α-processing of APP (sAPPα in media): moderately decreased α-processing of APP
  β-cleavage of APP (sAPPβ in media): strongly reduced β-cleavage
